Several values for one entry are separate records, joined by “and”; a condition that tells them apart may be missing. Identical values can stand only once.
Experiments:
[1] = Moisture content of DOTA (Karl Fischer) over time at controlled relative humidity; type: physicochemical; settings: Temp. 20 ± 2° C.
Procedure: The measurement of the moisture content in DOTA is performed as described in the semi-micro method of Karl Fischer (Fischer, Karl-Pharm. Eur. Section 2.5.12). This section and the next section illustrates how the moisture content in a batch of a macrocyclic ligand changed when the product was exposed to different conditions of relative humidity. The moisture content in the samples was measured using methods known to those skilled in the art. In this example, the measurement of the content of moisture in DOTA was performed as described above. Two samples of DOTA were kept in conditions of relative humidity (RH)=30+5% at a temperature of Temp=20+2° C. From these samples, small samples were taken at different times (T0=beginning of the experiment; T30=T0+30 min; T90=T0+90 min; and […]=T0+300 min) and the moisture content was measured as described above. Each experiment (Exp.) was performed twice and the average of each (Ind.) was determined (Avg.). This measurement, as the previous one, illustrated how the moisture content in a batch of a macrocyclic ligand was affected by the environmental relative humidity conditions. Therefore, the previous experiments were repeated in the same conditions but at a RH=75+5%. Again, each experiment (Exp.) was performed twice and the average of each (Ind.) was determined (Avg.).

[2] = LD50 better than for free DOTA; cited from earlier work

Structure (SMILES)	Moisture content DOTA, Avg. ([1]; T0, RH 30 ± 5%)	Moisture content DOTA, Ind. ([1]; T0, RH 30 ± 5%)	Moisture content DOTA, Avg. ([1]; T0, RH 75 ± 5%)	Moisture content DOTA, Ind. ([1]; T0, RH 75 ± 5%)	Moisture content DOTA, Avg. ([1]; T30 (T0+30 min), RH 30 ± 5%)	Moisture content DOTA, Ind. ([1]; T30 (T0+30 min), RH 30 ± 5%)	Moisture content DOTA, Avg. ([1]; T30 (T0+30 min), RH 75 ± 5%)	Moisture content DOTA, Ind. ([1]; T30 (T0+30 min), RH 75 ± 5%)	Moisture content DOTA, Avg. ([1]; T90 (T0+90 min), RH 30 ± 5%)	Moisture content DOTA, Ind. ([1]; T90 (T0+90 min), RH 30 ± 5%)	Moisture content DOTA, Avg. ([1]; T90 (T0+90 min), RH 75 ± 5%)	Moisture content DOTA, Ind. ([1]; T90 (T0+90 min), RH 75 ± 5%)	Moisture content DOTA, Avg. ([1]; T300 (T0+300 min), RH 30 ± 5%)	Moisture content DOTA, Ind. ([1]; T300 (T0+300 min), RH 30 ± 5%)	Moisture content DOTA, Avg. ([1]; T300 (T0+300 min), RH 75 ± 5%)	Moisture content DOTA, Ind. ([1]; T300 (T0+300 min), RH 75 ± 5%)	LD50 of Na2 [Ca-DOTA] relative to free DOTA [2]
O=C(O)CN1CCN(CC(=O)O)CCN(CC(=O)O)CCN(CC(=O)O)CC1 [DOTA, 1,4,7,10-tetraazacyclododecane-1,4,7,10-tetraacetic acid]	4.929 wt. % and 5.25 wt. %	5.150 wt. % and 4.941 wt. % and 4.929 wt. % and 5.346 wt. %	4.94 wt. % and 5.25 wt. %	5.150 wt. % and 4.941 wt. % and 4.929 wt. % and 5.346 wt. %	4.98 wt. % and 6.20 wt. %	6.247 wt. % and 4.944 wt. % and 5.020 wt. % and 6.154 wt. %	6.71 wt. % and 6.65 wt. %	6.851 wt. % and 6.734 wt. % and 6.694 wt. % and 6.449 wt. %	5.00 wt. % and 6.12 wt. %	6.170 wt. % and 5.038 wt. % and 4.954 wt. % and 6.062 wt. %	7.34 wt. % and 6.88 wt. %	6.789 wt. % and 7.475 wt. % and 7.200 wt. % and 6.962 wt. %	5.15 wt. % and 6.19 wt. %	6.268 wt. % and 5.178 wt. % and 5.114 wt. % and 6.106 wt. %	5.86 wt. % and 4.36 wt. %	4.609 wt. % and 5.914 wt. % and 5.813 wt. % and 4.111 wt. %	
O=C([O-])CN1CCN(CC(=O)[O-])CCN(CC(=O)[O-])CCN(CC(=O)[O-])CC1.[Ca+2].[Na+].[Na+] [Na2 [Ca-DOTA]]																	at least 40 times

— patent publication US20160051706A1, “PROCESS FOR PRODUCING A COMPLEX OF A LANTHANIDE WITH A MACROCYCLIC LIGAND” (AGFA HEALTHCARE, priority 2013, published 2016)
